# Source: ChEMBL document CHEMBL5108009, “Positron Emission Tomography (PET) Imaging Tracers for Serotonin Receptors” (J Med Chem, 2022)
# Legend:
# [1] = Biodistribution in rat assessed as drug uptake measured as percentage of injected dose per gram of tissue relative to control; assay type: ADME, organism-based; conditions: in vivo
# [2] = Displacement of [3H]-8-OH-DPAT from bovine hippocampal tissue 5HT1A receptor by competitive binding assay; assay type: tissue-based, Bos taurus, Hippocampus
# [3] = target: Alpha-1A adrenergic receptor (Homo sapiens) (UniProt P35348); assay: Binding affinity to alpha 1A adrenergic receptor (unknown origin); conditions: filed as antagonist
# [4] = target: T1, 5-hydroxytryptamine receptor 1A (Rattus norvegicus, UniProt P19327); assay: Displacement of [3H]-8-OH-DPAT from rat hippocampal membrane 5HT1A receptor by CEREP assay; assay type: cell membranes, Hippocampus
# T1 sequence (P19327 whole entry): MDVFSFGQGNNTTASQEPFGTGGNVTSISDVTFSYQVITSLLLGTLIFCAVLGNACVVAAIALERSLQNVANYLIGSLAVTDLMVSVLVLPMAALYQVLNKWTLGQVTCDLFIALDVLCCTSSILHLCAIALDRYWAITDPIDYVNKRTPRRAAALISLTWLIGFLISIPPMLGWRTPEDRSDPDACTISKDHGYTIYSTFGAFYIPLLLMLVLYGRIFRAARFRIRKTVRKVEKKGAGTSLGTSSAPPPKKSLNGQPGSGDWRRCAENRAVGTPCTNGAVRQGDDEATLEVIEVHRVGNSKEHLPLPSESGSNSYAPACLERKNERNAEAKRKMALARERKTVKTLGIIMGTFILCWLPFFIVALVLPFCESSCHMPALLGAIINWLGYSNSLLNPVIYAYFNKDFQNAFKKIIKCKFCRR
# [5] = target: Serotonin 3 (5-HT3) receptor
# Description: Inhibition of 5HT3 receptor (unknown origin)
# [6] = target: 5-hydroxytryptamine receptor 7 (Rattus norvegicus, UniProt P32305); assay: Binding affinity to rat 5-HT7 receptor assessed as inhibition constant
# [7] = Ratio of drug uptake in baboon hippocampus to cerebellum at 175 mins; assay type: ADME, tissue-based, Papio; conditions: in vivo, 2.917 h
# [8] = Ratio of drug uptake in baboon anterior cingulate cortex to cerebellum at 175 mins; assay type: ADME, tissue-based, Papio; conditions: in vivo, 2.917 h
# [9] = Ratio of drug uptake in baboon insular cortex to cerebellum at 175 mins; assay type: ADME, tissue-based, Papio; conditions: in vivo, 2.917 h
# [10] = Ratio of drug uptake in Rhesus monkey raphe to cerebellum; assay type: ADME, tissue-based, Macaca mulatta; conditions: in vivo
# [11] = Ratio of drug uptake in Rhesus monkey temporal cortex to cerebellum; assay type: ADME, tissue-based, Macaca mulatta; conditions: in vivo
# [12] = Drug metabolism in Rhesus monkey plasma assessed as unmetabolized compound after 3 hrs by TLC analysis; assay type: ADME, cell-free, Macaca mulatta; conditions: read-out: Stability
# [13] = Ratio of drug uptake in Rhesus monkey frontal cortex to cerebellum; assay type: ADME, tissue-based, Macaca mulatta, Brain frontal cortex/cerebellum; conditions: in vivo
# [14] = target: T2, 5-hydroxytryptamine receptor 1A (Homo sapiens, UniProt P08908); assay: Binding affinity to human recombinant 5-HT1A expressed in CHO cells assessed as inhibition constant; assay type: cell-based
# T2 sequence (P08908 whole entry): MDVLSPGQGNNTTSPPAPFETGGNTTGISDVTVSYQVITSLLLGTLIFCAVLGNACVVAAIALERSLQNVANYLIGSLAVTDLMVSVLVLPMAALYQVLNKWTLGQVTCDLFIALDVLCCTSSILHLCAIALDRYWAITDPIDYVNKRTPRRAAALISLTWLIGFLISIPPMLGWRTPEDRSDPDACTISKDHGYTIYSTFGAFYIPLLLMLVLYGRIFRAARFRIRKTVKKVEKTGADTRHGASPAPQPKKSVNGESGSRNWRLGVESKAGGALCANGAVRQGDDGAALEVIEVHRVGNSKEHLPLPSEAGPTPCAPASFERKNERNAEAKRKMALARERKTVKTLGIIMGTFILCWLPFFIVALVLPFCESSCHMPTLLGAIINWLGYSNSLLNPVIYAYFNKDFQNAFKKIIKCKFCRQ
# [15] = target: T3, 5-hydroxytryptamine receptor 7 (Homo sapiens, UniProt P34969); assay: Binding affinity to human recombinant 5-HT7 receptor expressed in CHO cells assessed as inhibition constant; assay type: cell-based
# [16] = target: T3, 5-hydroxytryptamine receptor 7; assay: Binding affinity to human recombinant 5-HT7 receptor assessed as inhibition constant
# [17] = Drug metabolism in monkey plasma assessed as unchanged compound at 120 mins postinjection relative to control; assay type: ADME, organism-based, Macaca mulatta; conditions: rhesus monkey, read-out: Stability
# [18] = target: T3, 5-hydroxytryptamine receptor 7; assay: Binding affinity to human 5-HT7 receptor expressed in HEK293 cells incubated for 1 hr by 96 microwell plate; assay type: cell-based; conditions: filed as agonist
# [19] = target: 5-hydroxytryptamine receptor 2A (Homo sapiens, UniProt P28223); assay: Binding affinity to human 5-HT2A transfected in human tsA201 cells assessed as inhibition constant incubated for 2 hrs by scintillation counter analysis; assay type: cell-based
# [20] = Drug biodistribution in rat brain incubated for 30 mins by autoradiographic analysis; assay type: ADME, organism-based; conditions: in vivo, 0.5 h
# [21] = target: D(4) dopamine receptor (Homo sapiens, UniProt P21917); assay: Binding affinity to D4 receptor (unknown origin) assessed as inhibition constant
# [22] = target: T2, 5-hydroxytryptamine receptor 1A
# [23] = target: T4, Alpha-1A adrenergic receptor (Homo sapiens, UniProt P35348); assay: Binding affinity to alpha 1A adrenergic receptor (unknown origin) assessed as inhibition constant
# T4 sequence (P35348 whole entry): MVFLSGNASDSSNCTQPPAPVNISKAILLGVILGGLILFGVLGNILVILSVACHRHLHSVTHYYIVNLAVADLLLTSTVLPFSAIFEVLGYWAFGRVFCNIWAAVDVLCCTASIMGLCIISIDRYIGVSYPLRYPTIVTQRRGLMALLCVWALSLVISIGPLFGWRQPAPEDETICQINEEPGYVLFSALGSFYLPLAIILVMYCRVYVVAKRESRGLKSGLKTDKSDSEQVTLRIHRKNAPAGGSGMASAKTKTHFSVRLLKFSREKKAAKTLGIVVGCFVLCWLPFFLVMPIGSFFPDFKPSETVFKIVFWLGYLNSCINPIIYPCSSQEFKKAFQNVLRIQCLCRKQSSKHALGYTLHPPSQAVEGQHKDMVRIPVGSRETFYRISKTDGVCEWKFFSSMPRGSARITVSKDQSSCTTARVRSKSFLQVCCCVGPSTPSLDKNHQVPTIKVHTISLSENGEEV
# [24] = target: T3, 5-hydroxytryptamine receptor 7; assay: Binding affinity to 5-HT7 receptor (unknown origin) assessed as inhibition constant
# [25] = Drug uptake in rat brain; assay type: ADME, tissue-based; conditions: in vivo
# [26] = organism: Macaca mulatta; assay: Binding affinity to rhesus monkey mesial temporal cingulate cortex 5-HT1A; assay type: tissue-based; conditions: filed as antagonist, tested as the 18F-labelled form
# [27] = organism: Macaca mulatta; assay: Binding affinity to rhesus monkey dorsal anterior cingulate cortex 5-HT1A; assay type: tissue-based; conditions: filed as antagonist, tested as the 18F-labelled form
# T3 sequence (P34969 whole entry): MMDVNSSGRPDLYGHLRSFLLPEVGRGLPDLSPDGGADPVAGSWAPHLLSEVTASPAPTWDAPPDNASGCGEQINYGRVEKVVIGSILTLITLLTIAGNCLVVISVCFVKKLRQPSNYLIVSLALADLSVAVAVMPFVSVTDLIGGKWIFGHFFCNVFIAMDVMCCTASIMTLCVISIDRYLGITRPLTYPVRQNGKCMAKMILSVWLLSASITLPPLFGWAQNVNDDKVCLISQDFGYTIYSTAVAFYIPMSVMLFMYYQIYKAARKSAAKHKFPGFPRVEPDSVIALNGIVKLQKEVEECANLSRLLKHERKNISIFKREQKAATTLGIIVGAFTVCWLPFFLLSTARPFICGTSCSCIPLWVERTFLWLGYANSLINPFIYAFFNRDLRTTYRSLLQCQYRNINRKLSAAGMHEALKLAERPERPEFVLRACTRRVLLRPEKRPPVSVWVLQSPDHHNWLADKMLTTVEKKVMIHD
# Chain of 5-hydroxytryptamine receptor 7 (Rattus norvegicus, UniProt P32305) (P32305 whole entry): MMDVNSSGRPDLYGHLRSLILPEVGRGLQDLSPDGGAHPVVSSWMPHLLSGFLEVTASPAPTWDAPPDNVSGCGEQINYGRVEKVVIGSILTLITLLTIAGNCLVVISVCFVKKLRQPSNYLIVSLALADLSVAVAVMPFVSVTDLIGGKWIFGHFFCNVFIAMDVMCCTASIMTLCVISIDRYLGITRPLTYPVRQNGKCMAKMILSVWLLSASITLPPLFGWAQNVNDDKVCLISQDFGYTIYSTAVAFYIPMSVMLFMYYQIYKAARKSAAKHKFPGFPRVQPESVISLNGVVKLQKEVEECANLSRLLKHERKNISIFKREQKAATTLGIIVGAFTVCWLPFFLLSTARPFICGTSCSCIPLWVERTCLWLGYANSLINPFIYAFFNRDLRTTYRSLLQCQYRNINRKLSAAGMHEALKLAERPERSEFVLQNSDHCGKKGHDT
# Chain of 5-hydroxytryptamine receptor 2A (P28223 whole entry): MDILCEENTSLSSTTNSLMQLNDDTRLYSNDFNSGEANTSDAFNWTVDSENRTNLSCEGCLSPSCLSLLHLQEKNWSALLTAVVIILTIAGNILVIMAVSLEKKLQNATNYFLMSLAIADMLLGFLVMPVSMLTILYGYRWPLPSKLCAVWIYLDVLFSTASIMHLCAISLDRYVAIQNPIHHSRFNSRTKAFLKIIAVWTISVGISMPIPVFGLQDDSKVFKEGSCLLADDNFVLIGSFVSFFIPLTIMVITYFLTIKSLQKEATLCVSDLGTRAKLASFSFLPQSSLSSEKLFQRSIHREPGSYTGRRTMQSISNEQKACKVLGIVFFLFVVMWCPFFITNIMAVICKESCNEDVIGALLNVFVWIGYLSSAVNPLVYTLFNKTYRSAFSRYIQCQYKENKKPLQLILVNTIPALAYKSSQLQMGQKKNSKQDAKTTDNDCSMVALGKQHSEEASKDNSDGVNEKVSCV
# Chain of D(4) dopamine receptor (P21917 whole entry): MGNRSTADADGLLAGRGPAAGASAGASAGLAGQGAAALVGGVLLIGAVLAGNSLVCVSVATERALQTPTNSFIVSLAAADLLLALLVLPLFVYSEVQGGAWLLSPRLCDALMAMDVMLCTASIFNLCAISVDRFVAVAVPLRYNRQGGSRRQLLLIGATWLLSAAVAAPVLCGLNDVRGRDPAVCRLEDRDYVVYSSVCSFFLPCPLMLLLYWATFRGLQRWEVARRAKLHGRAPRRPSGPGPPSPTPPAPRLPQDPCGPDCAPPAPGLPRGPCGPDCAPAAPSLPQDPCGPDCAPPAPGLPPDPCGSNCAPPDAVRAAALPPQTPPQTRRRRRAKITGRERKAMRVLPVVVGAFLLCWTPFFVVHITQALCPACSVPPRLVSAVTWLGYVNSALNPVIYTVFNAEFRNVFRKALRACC
smiles,measurement,setting,value
COc1ccccc1N1CCN(CCCCn2ccnc2S[11CH3])CC1,Drug uptake,[1],1.14 % ID/g
[11CH3]O[C@H]1CC[C@@H](C(=O)N(CCN2CCN(c3ccccc3O)CC2)c2ccccn2)CC1,Ki,[2],24 nM
COc1ccccc1N1CCN(CCCCN(C)C(=O)c2cnc(SC)n2C)CC1,K,[3],5.45 nM
same,IC50,[4],0.86 nM
COc1ccccc1N1CCN(CCCCN(C)C(=O)c2cnc(S[11CH3])n2C)CC1,Drug uptake,[1],0.37 % ID/g
COc1cn2cccc2c(N2CCN(Cc3ccc(F)cc3)CC2)n1,IC50,[5],6.6 nM
CC1(CCCCN2CCN(c3cccc(OCCF)c3)CC2)C(=O)Nc2ccccc21 (stereo unspecified),Ki,[6],5.6 nM
Cn1c(=O)cnn(CCCCN2CCN(c3ccccc3OCC[18F])CC2)c1=O,Ratio,[7],4
same,Ratio,[8],2.3
same,Ratio,[9],1.8
COc1ccccc1N1CCN(CCN(C(=O)C2CCC(C[18F])CC2)c2ccccn2)CC1 (stereo unspecified),Ratio,[10],3.3
same,Ratio,[11],10
same,remaining at 3 h,[12],30%
same,Ratio,[13],9
COc1ccccc1N1CCN(CCC[C@H]2CCCN2S(=O)(=O)c2ccc(F)cc2)CC1,Ki,[14],6.8 nM
same,Ki,[15],2.6 nM
COc1cccc(N2CCN(CCCCC3C(=O)Nc4ccccc43)CC2)c1 (stereo unspecified),Ki,[16],2.6 nM
CN1CCN(c2cc(F)cc3c(=O)cc(C(=O)Nc4ccc(N5CCOCC5)c([18F])c4)oc23)CC1,remaining at 2 h,[17],> 40%
CCn1cncc1-c1c[nH]c2ccc(OC)cc12,K,[18],30 nM
COc1cc(CCNCc2ccccc2OC)c(OCC[18F])cc1Br,Ki,[19],< 1.2 nM
O=S(=O)(c1ccc([18F])cc1)C1CCN(CCc2ccc(F)cc2F)CC1,Drug uptake,[20],> 80%
COc1cccc(N2CCN(CCCCn3ncc(=O)n(C)c3=O)CC2)c1,Ki,[21],21.8 nM
same,Ki,[22],0.15 nM
same,Ki,[23],6.75 nM
same,Ki,[24],12.9 nM
[O-][S+](c1ccc([18F])cc1)C1CCN(CCc2ccc(F)cc2F)CC1 (stereo unspecified),Drug uptake,[20],30%
COc1ccc2cccc(N3CCN(CCNC(=O)c4ccc([18F])cc4)CC3)c2c1,Ki,[22],0.98 nM
same,SUV,[25],2
CCC1(CCCCN2CCN(c3cccc(OCCF)c3)CC2)C(=O)Nc2ccccc21 (stereo unspecified),Ki,[6],13 nM
COc1ccccc1N1CCN(CCN(c2ccccn2)C(=O)[C@H]2CC[C@H](CF)CC2)CC1,Bmax,[26],42 pmol/mL
same,Bmax,[27],36 pmol/mL
